One test relates to LS174T (KRAS^G12D). Nature of the test: In vitro cell growth inhibition, CRC. The class given is cell-based. The following applies: Homo sapiens.
Another test has as its system Calu-1 (KRAS^G12C). The test can be described thus: In vitro cell growth inhibition, NSCLC. The class given is cell-based. The conditions noted are these: Homo sapiens.
Another test relates to LS513 (KRAS^G12D). Nature of the test: In vitro cell growth inhibition, CRC. Type of test: cell-based. The conditions noted are these: Homo sapiens, LS-513.
Test [1] has as its system MEK and ERK phosphorylation in HCT116 (KRAS^G13D) cells. The test can be described thus: Inhibition of MEK and ERK phosphorylation, KRAS mutant. The class given is cell-based. The following applies: Homo sapiens, HCT-116, CRC HCT116, KRAS G13D, 2 hr treatment.
The next test relates to SK-MEL-30 (NRAS^Q61K). Nature of the test: In vitro cell growth inhibition, melanoma. Type of test: cell-based. The following applies: Homo sapiens, mean ± SD, n = 3. The method, then: (§1) A G150 of 69, 57, 53, and 24 nM were determined for SK-MEL-28, A375, SK-MEL-2, and SK-MEL-30 cell lines, respectively.
Another test relates to SK-MEL-2 (NRAS^Q61R). Nature of the test: In vitro cell growth inhibition, melanoma. The class given is cell-based. The conditions noted are these: Homo sapiens, mean ± SD, n = 3. As to the method:
as §1

The next test concerns P-MEK / total MEK. The test can be described thus: % P/T-MEK (ratio of P-MEK and total MEK). As to the method:
Belvarafenib was evaluated to measure the inhibition capability of RAF monomers and dimers. In Table 12: “A375” refers to the A375 a human melanoma cell line bearing a BRAF^V600E mutation; “IPC298” refers to the IPC298 cutaneous melanoma cell line bearing an NRAS^Q61L mutation; “A549” refers to the A549 lung adenocarcinoma cell line baring a KRAS mutation; “CSFR1” refers to the CSFR1 gene; “DDR1” refers to discoidin domain receptors DDR1; and “DDR2” refers to discoidin domain receptors DDR2. In Table 13: “% P/T−MEK” refers to the ratio of P-MEK and total MEK; “Conc 1” refers to an inhibitor first (lowest) concentration; “Conc 2” refers to an inhibitor second (intermediate) concentration; and “Conc 3” refers to an inhibitor third (highest) concentration. In Table 13, LXH254 refers to a drug having CAS No.: 1800398-38-2 and the following structure: […]

For another test, the system named is HCT116 (KRAS^G13D). Nature of the test: In vitro cell growth inhibition, CRC. Type of test: cell-based. The conditions noted are these: Homo sapiens, HCT-116.
The test system of the next test is A375 (BRAF^V600E). The test can be described thus: In vitro cell growth inhibition, melanoma. The class given is cell-based. The following applies: Homo sapiens, A-375, mean ± SD, n = 3.
The next test relates to Calu-6 (KRAS^Q61K). The test can be described thus: In vitro cell growth inhibition, NSCLC. Type of test: cell-based. The following applies: Homo sapiens.
A further test concerns SK-MEL-28 (BRAF^V600E). The test can be described thus: In vitro cell growth inhibition, melanoma. The class given is cell-based. The following applies: Homo sapiens, mean ± SD, n = 3.
In test [2] the test system is MEK and ERK phosphorylation in Lovo (KRAS^G13D) cells. The test can be described thus: Inhibition of MEK and ERK phosphorylation, KRAS mutant. The class given is cell-based. The conditions noted are these: Homo sapiens, CRC Lovo, KRAS G13D, 2 hr treatment.
Test [3] relates to MEK and ERK phosphorylation in Calu-6 (KRAS^Q61K) cells. The test is described as above. The class given is cell-based. The conditions noted are these: Homo sapiens, NSCLC Cau-6 (Calu-6), 2 hr treatment.
The subject of a further test is Lovo (KRAS^G13D). The test can be described thus: In vitro cell growth inhibition, CRC. The class given is cell-based. The following applies: Homo sapiens.
The next test relates to NRAS-mutant melanoma. The conditions noted are these: NRAS-mutant melanoma patients, NEMO study; cited from earlier work.
Test [4] relates to MEK and ERK phosphorylation in SK-MEL-30 (NRAS^Q61K) cells. Nature of the test: Inhibition of MEK and ERK phosphorylation. The class given is cell-based. The conditions noted are these: Homo sapiens.
Test [5] has as its system MEK and ERK phosphorylation in A375 (BRAF^V600E) cells. The test can be described thus: Inhibition of MEK and ERK phosphorylation. Type of test: cell-based. The conditions noted are these: Homo sapiens.
The test system of the next test is B-CPAP (BRAF^V600E). Nature of the test: In vitro cell growth inhibition, thyroid cancer. Type of test: cell-based. The following applies: Homo sapiens, BCPAP.
For another test, the system named is HT-29 (BRAF^V600E). The test can be described thus: In vitro cell growth inhibition, CRC. Type of test: cell-based. The conditions noted are these: Homo sapiens.
For a further test, the system named is ARO (BRAF^V600E). The test can be described thus: In vitro cell growth inhibition, thyroid cancer. Type of test: cell-based.
Another test has as its system 8505C (BRAF^V600E). The test can be described thus: In vitro cell growth inhibition, thyroid cancer. The conditions noted are these: Homo sapiens. Type of test: cell-based.
The next test concerns FRO (BRAF^V600E). Nature of the test: In vitro cell growth inhibition, thyroid cancer. Type of test: cell-based.
The subject of another test is SNU80 (BRAF^G468R). Nature of the test: In vitro cell growth inhibition, thyroid cancer. The class given is cell-based.
The test system of test [6] is MEK and ERK phosphorylation in SK-MEL-2 (NRAS^Q61R) cells. The test can be described thus: Inhibition of MEK and ERK phosphorylation. Type of test: cell-based. The conditions noted are these: Homo sapiens.
The target in another test is T1, DDR2 (Homo sapiens, UniProt Q16832).
T1 sequence (Q16832 22-855): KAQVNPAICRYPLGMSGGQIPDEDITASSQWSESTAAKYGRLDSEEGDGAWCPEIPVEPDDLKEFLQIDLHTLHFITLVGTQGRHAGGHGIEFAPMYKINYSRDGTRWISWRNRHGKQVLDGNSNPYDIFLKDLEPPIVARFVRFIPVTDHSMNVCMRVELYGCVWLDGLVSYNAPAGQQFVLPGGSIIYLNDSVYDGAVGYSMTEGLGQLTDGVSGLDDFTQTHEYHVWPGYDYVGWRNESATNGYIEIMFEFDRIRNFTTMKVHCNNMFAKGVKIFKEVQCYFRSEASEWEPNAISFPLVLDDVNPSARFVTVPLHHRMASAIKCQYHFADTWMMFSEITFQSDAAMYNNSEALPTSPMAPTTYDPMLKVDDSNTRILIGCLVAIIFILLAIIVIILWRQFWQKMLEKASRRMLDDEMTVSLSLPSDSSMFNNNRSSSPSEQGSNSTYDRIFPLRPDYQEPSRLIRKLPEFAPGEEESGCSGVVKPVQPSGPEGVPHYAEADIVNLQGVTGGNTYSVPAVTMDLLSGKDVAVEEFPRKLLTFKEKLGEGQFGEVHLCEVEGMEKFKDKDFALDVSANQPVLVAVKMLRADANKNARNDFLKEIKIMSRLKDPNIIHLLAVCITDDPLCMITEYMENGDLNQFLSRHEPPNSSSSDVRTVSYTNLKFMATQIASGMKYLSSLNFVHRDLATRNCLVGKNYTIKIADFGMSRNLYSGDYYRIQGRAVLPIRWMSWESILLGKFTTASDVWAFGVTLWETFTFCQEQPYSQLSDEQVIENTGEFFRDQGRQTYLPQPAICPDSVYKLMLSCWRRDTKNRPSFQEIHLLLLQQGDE
The test can be described thus: In vitro kinase assay. The following applies: confirmatory assay. The class given is biochemical. As to the method: (§2) The in vitro kinase inhibitory selectivity and activity of belvarafenib were evaluated in a kinase panel assay against 189 kinases and a subsequent confirmatory assay against selected kinases by using Z′-Lyte® biochemical assay, Lantha® binding assay and Adapter® assay.

Another test addresses CSF1R (FMS) (Homo sapiens, UniProt P07333). The test can be described thus: In vitro kinase assay. Type of test: biochemical. The following applies: confirmatory assay. As to the method: as §2
In another test the target is DDR1 (Homo sapiens, UniProt Q08345). Nature of the test: In vitro kinase assay. Type of test: biochemical. The following applies: confirmatory assay. As to the method: as §2
A further test has as its system CAL-62 (KRAS^G12R). Nature of the test: In vitro cell growth inhibition, thyroid cancer. Type of test: cell-based. The conditions noted are these: Homo sapiens.
In test [7] the test system is MEK and ERK phosphorylation in SK-MEL-28 (BRAF^V600E) cells. The test can be described thus: Inhibition of MEK and ERK phosphorylation. The following applies: Homo sapiens. Type of test: cell-based.
The next test concerns NPA (BRAF^V600E). The test can be described thus: In vitro cell growth inhibition, thyroid cancer. Type of test: cell-based.
A further test deals with Colo-205 (BRAF^V600E). Nature of the test: In vitro cell growth inhibition, CRC. The following applies: Homo sapiens. The class given is cell-based.
Another test deals with SNU790 (BRAF^V600E). The test can be described thus: In vitro cell growth inhibition, thyroid cancer. The conditions noted are these: SNU7890, BRAF^V600E. Type of test: cell-based.
The mark [8] stands for this setting: Conc 1, first (lowest) concentration.
[9] abbreviates: Conc 2, second (intermediate) concentration.
[10] abbreviates: Conc 3, third (highest) concentration.

These results are taken from US20230233567A1, “BELVARAFENIB FOR USE IN CANCER TREATMENT” (Hanmi Pharm. Co., Ltd., priority 2020, published 2023).

Read-outs that look alike come from different tables or passages of the source.

Sequence of CSF1R (FMS) (P07333 20-972): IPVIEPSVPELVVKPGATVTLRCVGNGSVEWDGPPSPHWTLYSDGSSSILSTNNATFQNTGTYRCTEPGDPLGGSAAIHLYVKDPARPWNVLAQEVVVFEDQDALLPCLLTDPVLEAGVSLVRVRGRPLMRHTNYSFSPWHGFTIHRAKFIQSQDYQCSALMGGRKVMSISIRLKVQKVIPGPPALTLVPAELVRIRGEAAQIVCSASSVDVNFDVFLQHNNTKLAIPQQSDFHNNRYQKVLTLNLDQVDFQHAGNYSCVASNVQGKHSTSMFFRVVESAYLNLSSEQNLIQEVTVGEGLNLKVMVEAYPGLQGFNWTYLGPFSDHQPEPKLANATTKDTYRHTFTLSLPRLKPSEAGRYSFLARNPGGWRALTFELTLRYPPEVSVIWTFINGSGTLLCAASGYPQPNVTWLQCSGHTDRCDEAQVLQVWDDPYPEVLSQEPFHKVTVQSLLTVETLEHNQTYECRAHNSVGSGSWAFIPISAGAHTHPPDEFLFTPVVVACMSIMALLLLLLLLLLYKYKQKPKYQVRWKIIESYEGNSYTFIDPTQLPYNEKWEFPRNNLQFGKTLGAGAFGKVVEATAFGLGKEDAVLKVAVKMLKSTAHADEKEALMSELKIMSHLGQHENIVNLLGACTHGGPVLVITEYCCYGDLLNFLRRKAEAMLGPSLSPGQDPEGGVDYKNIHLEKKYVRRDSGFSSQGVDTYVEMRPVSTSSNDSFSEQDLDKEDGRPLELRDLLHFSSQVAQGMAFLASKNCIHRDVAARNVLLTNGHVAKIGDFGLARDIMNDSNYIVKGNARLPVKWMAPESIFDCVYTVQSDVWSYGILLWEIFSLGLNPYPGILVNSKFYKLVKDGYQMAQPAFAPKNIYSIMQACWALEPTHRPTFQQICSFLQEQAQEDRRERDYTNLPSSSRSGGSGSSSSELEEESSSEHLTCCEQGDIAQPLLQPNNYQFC
Sequence of DDR1 (Q08345 19-913): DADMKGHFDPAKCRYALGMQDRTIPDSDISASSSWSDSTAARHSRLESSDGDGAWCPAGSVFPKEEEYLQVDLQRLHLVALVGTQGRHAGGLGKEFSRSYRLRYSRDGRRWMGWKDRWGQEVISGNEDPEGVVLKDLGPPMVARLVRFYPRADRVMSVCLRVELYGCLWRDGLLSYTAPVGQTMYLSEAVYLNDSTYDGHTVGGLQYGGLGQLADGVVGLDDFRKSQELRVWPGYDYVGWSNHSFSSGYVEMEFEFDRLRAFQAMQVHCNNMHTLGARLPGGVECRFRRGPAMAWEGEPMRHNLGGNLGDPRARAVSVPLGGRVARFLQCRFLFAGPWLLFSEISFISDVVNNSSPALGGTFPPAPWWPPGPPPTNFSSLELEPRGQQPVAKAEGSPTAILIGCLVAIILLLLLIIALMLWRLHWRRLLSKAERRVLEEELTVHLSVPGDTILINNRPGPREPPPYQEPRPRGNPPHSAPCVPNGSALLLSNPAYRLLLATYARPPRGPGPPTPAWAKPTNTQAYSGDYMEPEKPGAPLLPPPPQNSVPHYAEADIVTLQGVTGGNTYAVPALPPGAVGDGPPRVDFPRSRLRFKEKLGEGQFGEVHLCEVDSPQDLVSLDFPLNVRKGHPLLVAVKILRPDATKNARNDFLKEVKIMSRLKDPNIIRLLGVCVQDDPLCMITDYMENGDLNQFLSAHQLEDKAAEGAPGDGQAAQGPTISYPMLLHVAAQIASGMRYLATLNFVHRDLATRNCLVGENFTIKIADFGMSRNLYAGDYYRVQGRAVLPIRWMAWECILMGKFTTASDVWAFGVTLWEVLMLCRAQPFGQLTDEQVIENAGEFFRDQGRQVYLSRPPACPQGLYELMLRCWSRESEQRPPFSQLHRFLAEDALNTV

One may read the GI50 as the concentration that inhibits growth by half. By IC50 is commonly meant the concentration at which inhibition is half-maximal. On to `CC(C)(C)c1nc(-c2cccc(NS(=O)(=O)c3c(F)cccc3F)c2F)c(-c2ccnc(N)n2)s1` [Dabrafenib], for which the GI50 in the test on LS174T (KRAS^G12D) is > 10 µM; with Calu-1 (KRAS^G12C) it was 0.904 µM; in the test on LS513 (KRAS^G12D), 3.06 µM; in the test with SK-MEL-30 (NRAS^Q61K), 0.258 µM; in the test with SK-MEL-2 (NRAS^Q61R), 0.204 µM; in the test with HCT116 (KRAS^G13D), > 10 µM. Also, the concentration for 50% growth inhibition (GI50) in the test with A375 (BRAF^V600E) is < 0.0001 µM; with Calu-6 (KRAS^Q61K), 0.618 µM; in the test with SK-MEL-28 (BRAF^V600E) it was < 0.0001 µM; with Lovo (KRAS^G13D) it was 0.214 µM. Also, the 50% inhibitory concentration (IC50) in test [1] (read-out: IC50 pERK), in [1] (read-out: IC50 pMEK), in test [2] (read-out: IC50 pERK), in [2] (read-out: IC50 pMEK), in [3] (read-out: IC50 pERK) and in test [3] (read-out: IC50 pMEK) was > 10 µM in each case. The “% P/T-MEK” value was determined as 125% in the test on P-MEK / total MEK (setting [8]), 150% in the test on P-MEK / total MEK (setting [9]) and 75% in the test with P-MEK / total MEK (setting [10]).

As for `Cn1cnc2c(F)c(Nc3ccc(Br)cc3F)c(C(=O)NOCCO)cc21` [binimetinib], in the test on NRAS-mutant melanoma, the mPFS is on record as 2.8 months and the overall response rate is 15%.

On to `Cc1ccc(NC(=O)c2ccnc(C(F)(F)F)c2)cc1-c1cc(OCCO)nc(N2CCOCC2)c1` [LXH254], for which the “% P/T-MEK” value was 80% in the test on P-MEK / total MEK (setting [8]), 70% in the test on P-MEK / total MEK (setting [9]) and 10% with P-MEK / total MEK (setting [10]).

As to `CCCS(=O)(=O)Nc1ccc(F)c(C(=O)c2c[nH]c3ncc(-c4ccc(Cl)cc4)cc23)c1F` [Vemurafenib, reference compound], the IC50 in test [4] (read-out: IC50 pERK) is > 10 µM; in test [4] (read-out: IC50 pMEK), > 10 µM; in [5] (A-375, read-out: IC50 pERK) it was 0.02 µM; in test [5] (A-375, read-out: IC50 pMEK) it was 0.073 µM; in [6] (read-out: IC50 pERK), > 10 µM; in test [6] (read-out: IC50 pMEK), > 10 µM. In addition, the half-inhibitory concentration (IC50) in [1] (read-out: IC50 pERK) was > 10 µM; in test [1] (read-out: IC50 pMEK) it was > 10 µM; against DDR2, > 10 µM; on CSF1R (FMS), > 10 µM; against DDR1, > 10 µM; in test [7] (read-out: IC50 pERK), 0.028 µM. Also, the IC50 in test [7] (read-out: IC50 pMEK) is 0.032 µM; in [2] (read-out: IC50 pERK), > 10 µM; in test [2] (read-out: IC50 pMEK) it was > 10 µM; in [3] (read-out: IC50 pERK), > 10 µM; in test [3] (read-out: IC50 pMEK), > 10 µM. Besides, the GI50 in the test with B-CPAP (BRAF^V600E) was 0.031 µM; in the test with LS174T (KRAS^G12D), > 10 µM; with HT-29 (BRAF^V600E) it was 0.11 µM; with ARO (BRAF^V600E) it was 5.26 µM; in the test on 8505C (BRAF^V600E), 3.44 µM; with FRO (BRAF^V600E) it was 1.76 µM. Further, the GI50 in the test with SNU80 (BRAF^G468R) was 2.85 µM; with Calu-1 (KRAS^G12C), 7.48 µM; in the test on LS513 (KRAS^G12D), > 10 µM; in the test on SK-MEL-30 (NRAS^Q61K) it was > 10 µM; in the test on SK-MEL-2 (NRAS^Q61R) it was > 10 µM; in the test on HCT116 (KRAS^G13D), > 10 µM. Moreover, the GI50 is > 10 µM with CAL-62 (KRAS^G12R); 0.075 ± 0.012 µM in the test on A375 (BRAF^V600E); > 10 µM in the test with Calu-6 (KRAS^Q61K); 0.077 ± 0.017 µM with SK-MEL-28 (BRAF^V600E); 0.044 µM with NPA (BRAF^V600E); 4.03 µM in the test with Lovo (KRAS^G13D). Also, the results for the GI50 with Colo-205 (BRAF^V600E) and in the test on SNU790 (BRAF^V600E) were 0.065 µM and 0.19 µM, respectively.
